# Test results taken from ChEMBL document CHEMBL1159261, “New bioactive monotetrahydrofuran Annonaceous acetogenins, annomuricin C and muricatocin C, from the leaves of Annona muricata” (J Nat Prod, 1995).
# Columns and labels:
# HT-29 = test: Cytotoxicity against human HT-29 cells after 7 days by MTT assay; assay type: functional; conditions: HT-29, 168 h, read-out: ED50 (the source's name)
# A549 = test: Cytotoxicity against human A549 cells after 7 days by MTT assay; assay type: functional; conditions: A549, 168 h, read-out: ED50 (the source's name)
# MCF7 = test: Cytotoxicity against human MCF7 cells after 7 days by MTT assay; assay type: functional; conditions: MCF7, 168 h, read-out: ED50 (the source's name)
# [1] = Toxicity against brine shrimp; assay type: organism-based; conditions: artemia, in vivo; read-out: LD50 (the source's name)
Compound,EC50 (HT-29),EC50 (A549),EC50 (MCF7),LC50 [1]
CCCCCCCCCCCC[C@@H](O)[C@H]1CC[C@H]([C@H](O)CC[C@@H](O)C[C@H](O)CCCCC[C@@H](O)CC2=C[C@H](C)OC2=O)O1 [MURICATOCIN C],1.48 µg/mL,0.0909 µg/mL,0.0645 µg/mL,0.604 µg/mL
CCCCCCCCCCCC[C@@H](O)[C@H]1CC[C@H]([C@H](O)CC[C@@H]2C[C@@H](CCCCC[C@@H](O)CC3=C[C@H](C)OC3=O)OC(C)(C)O2)O1,0.261 µg/mL,0.00376 µg/mL,0.00398 µg/mL,0.189 µg/mL
COc1cccc2c1C(=O)c1c(O)c3c(c(O)c1C2=O)C[C@@](O)(C(=O)CO)C[C@@H]3O[C@H]1C[C@H](N)[C@H](O)[C@H](C)O1 [DOXORUBICIN],0.0348 µg/mL,,0.106 µg/mL,
CCCCCCCCCCCC[C@@H](O)[C@H]1CC[C@H]([C@H](O)CCC[C@@H]2OC(C)(C)O[C@@H]2CCCCC[C@@H](O)CC2=C[C@H](C)OC2=O)O1,1.41 µg/mL,0.0698 µg/mL,0.00481 µg/mL,0.235 µg/mL
CCCCCCCCCCCC[C@@H](O)[C@H]1CC[C@H]([C@H](O)CCC[C@H](O)[C@@H](O)CCCCC[C@@H](O)CC2=C[C@H](C)OC2=O)O1 [ANNOMURICIN C],1.54 µg/mL,0.308 µg/mL,0.228 µg/mL,0.613 µg/mL
